{
  "source": "patent US20070122350A1",
  "about": "“Safe and effective methods of administering therapeutic agents” (Transave, Inc., priority 2005, published 2007)",
  "origin": "cited, not measured here",
  "conditions": "OSHA",
  "data": [
    {"smiles": "N.N.[Cl][Pt][Cl]", "note": "[cisplatin, Cis-diamminedichloroplatinum(II)]", "values": [
      {"measurement": "legal airborne permissible exposure limit (PEL)", "setting": "averaged over an eight-hour work shift", "result": "2·10^−3 mg/m^3"},
      {"measurement": "legal airborne permissible exposure limit (PEL), equivalent", "setting": "per liter of air during 480 consecutive minutes", "result": 2, "unit": "ng/L"}
    ]}
  ]
}
